The results in this text go back to ChEMBL document CHEMBL4261490, “Exploring the links between peptoid antibacterial activity and toxicity” (Medchemcomm, 2017).

Common to all, as to type: toxicity
What all share (details): read-out: Selectivity Index

Series [1] is described as follows: Selectivity index, ratio of ED50 for human HepG2 cells to MIC for Escherichia coli K-12 W3110 ATCC 27325.
Series [2] can be described thus: Selectivity index, ratio of ED50 for human HaCaT cells to MIC for Staphylococcus aureus 3R7089 strain Oxford/ATCC 9144.
Series [3] in a line: Selectivity index, ratio of ED50 for human HaCaT cells to MIC for Staphylococcus epidermidis clinical isolate.
The nature of series [4]: Selectivity index, ratio of ED50 for human HepG2 cells to MIC for Staphylococcus aureus 3R7089 strain Oxford/ATCC 9144.
A short description of series [5]: Selectivity index, ratio of ED50 for human HaCaT cells to MIC for Escherichia coli K-12 W3110 ATCC 27325.
Series [6] is described as follows: Selectivity index, ratio of ED50 for human HepG2 cells to MIC for Staphylococcus epidermidis clinical isolate.
Series [7] can be described thus: Selectivity index, ratio of ED50 for human HaCaT cells to MIC for Pseudomonas aeruginosa PAO1 ATCC 15692.

Each structure is given as a SMILES string. Square brackets hold non-standard residues; d marks the D form. Peptide text beside a SMILES is read from it. N(4-F-Bzl)Gly = O=C(O)CNCc1ccc(F)cc1; Nspe = C[C@H](NCC(=O)O)c1ccccc1; NhArg = N=C(N)NCCCCNCC(=O)O; Nlys = NCCCCNCC(=O)O

As for `NCCCCNCC(=O)N(CC(=O)N(CC(=O)N(CCCCN)CC(=O)N(CC(=O)N(CC(=O)N(CCCCN)CC(=O)N(CC(=O)N(CC(=O)N(CCCCN)CC(=O)N(CC(=O)N(CC(N)=O)Cc1ccc(F)cc1)Cc1ccc(F)cc1)Cc1ccc(F)cc1)Cc1ccc(F)cc1)Cc1ccc(F)cc1)Cc1ccc(F)cc1)Cc1ccc(F)cc1)Cc1ccc(F)cc1` (H-[Nlys][N(4-F-Bzl)Gly][N(4-F-Bzl)Gly][Nlys][N(4-F-Bzl)Gly][N(4-F-Bzl)Gly][Nlys][N(4-F-Bzl)Gly][N(4-F-Bzl)Gly][Nlys][N(4-F-Bzl)Gly][N(4-F-Bzl)Gly]-NH2), the selectivity ratio in series [1] turned out to be 2; in series [2] it was 23; in series [3] it was 46; in series [4], 15; in series [5] it was 4; in series [6], 30.
Turning to `C[C@@H](c1ccccc1)N(CC(N)=O)C(=O)CN(C(=O)CN(CCCCN)C(=O)CN(C(=O)CN(C(=O)CN(CCCCNC(=N)N)C(=O)CN(C(=O)CN(C(=O)CN(CCCCN)C(=O)CN(C(=O)CN(C(=O)CNCCCCNC(=N)N)[C@@H](C)c1ccccc1)[C@@H](C)c1ccccc1)[C@@H](C)c1ccccc1)[C@@H](C)c1ccccc1)[C@@H](C)c1ccccc1)[C@@H](C)c1ccccc1)[C@@H](C)c1ccccc1` (H-[NhArg][Nspe][Nspe][Nlys][Nspe][Nspe][NhArg][Nspe][Nspe][Nlys][Nspe][Nspe]-NH2), the selectivity ratio in series [1], in series [2] and in series [5] was 2 in each case.
On to `C[C@@H](c1ccccc1)N(CC(N)=O)C(=O)CN(Cc1ccc(F)cc1)C(=O)CN(CCCCN)C(=O)CN(C(=O)CN(Cc1ccc(F)cc1)C(=O)CN(CCCCN)C(=O)CN(C(=O)CN(Cc1ccc(F)cc1)C(=O)CN(CCCCN)C(=O)CN(C(=O)CN(Cc1ccc(F)cc1)C(=O)CNCCCCN)[C@@H](C)c1ccccc1)[C@@H](C)c1ccccc1)[C@@H](C)c1ccccc1`, for which the selectivity ratio in series [2] amounted to 10; in series [3] it was 10; in series [4], 13; in series [6] it was 13.
As to `C[C@@H](c1ccccc1)N(CC(N)=O)C(=O)CN(C(=O)CN(CCCCN)C(=O)CN(C(=O)CN(C(=O)CN(CCCCN)C(=O)CN(C(=O)CN(C(=O)CN(CCCCNC(=N)N)C(=O)CN(C(=O)CN(C(=O)CNCCCCN)[C@@H](C)c1ccccc1)[C@@H](C)c1ccccc1)[C@@H](C)c1ccccc1)[C@@H](C)c1ccccc1)[C@@H](C)c1ccccc1)[C@@H](C)c1ccccc1)[C@@H](C)c1ccccc1` (H-[Nlys][Nspe][Nspe][NhArg][Nspe][Nspe][Nlys][Nspe][Nspe][Nlys][Nspe][Nspe]-NH2), the selectivity ratio in series [1], in series [2], in series [5] and in series [7] was 2 throughout.
On to `C[C@@H](c1ccccc1)N(CC(N)=O)C(=O)CN(C(=O)CN(CCCCN)C(=O)CN(C(=O)CN(C(=O)CN(CCCCN)C(=O)CN(C(=O)CN(C(=O)CN(CCCCNC(=N)N)C(=O)CN(C(=O)CN(C(=O)CNCCCCNC(=N)N)[C@@H](C)c1ccccc1)[C@@H](C)c1ccccc1)[C@@H](C)c1ccccc1)[C@@H](C)c1ccccc1)[C@@H](C)c1ccccc1)[C@@H](C)c1ccccc1)[C@@H](C)c1ccccc1` (H-[NhArg][Nspe][Nspe][NhArg][Nspe][Nspe][Nlys][Nspe][Nspe][Nlys][Nspe][Nspe]-NH2), for which the selectivity ratio in series [2], in series [5] and in series [7] was 1 each time.
